Experiments:
[1] = tested on: mice with ConA induced liver damage; assay: ConA induced immunological liver damage model in mice; type: in vivo, Kunming mice
Experimental: Kunming mice of clean grade (male, weight 20±2 g, supplied by the Laboratory Animal Center, Henan Province) are randomly divided into groups with 6 mice in each group. Bifendate (Xinchang Pharmaceutical Factory of Zhejiang Pharmaceutical Co., Ltd, 200 mg/kg) is used as positive control, andrographolide (AD) is provided by Furen Pharmaceutical Group Co., Ltd, and the test compounds are synthesized by the inventors with purities higher than 99.0%. Normal control group and model group are intragastrically given 0.5% sodium carboxymethylcellulose (CMC-Na), and test groups are given 0.5% CMC-Na suspensions with AD (0.88 mmol/kg), and low dosage (0.66 mmol/kg) and high dosage (0.88 mmol/kg) of compound A, B and C, respectively. The drugs are given for 3 days. One hour after the last administration, all mice except those in the normal control group are injected with a single dose of ConA (20 mg/kg) through the caudal vein. After 8 h, the eyeball is enucleated to collect blood, which is centrifuged at 3000 rpm for 15 min to separate serum. ALT and AST are tested according to the kit specification, respectively (Nanjing Jiancheng Bioengineering Institute). The left lobe of liver is taken to prepare 10% homogenate using physiological saline, MDA is determined according to the kit specification (Nanjing Jiancheng Bioengineering Institute). To 50 μL liver homogenate is added 2 mL of 0.5 mol/L KOH-methanol solution and kept at 50° C. water bath to isomerize for 20 minutes, then absorbance (A value) is measured at 278 nm, using the A value per mL of homogenate to represent the PGE2 content. Experimental data are expressed as average±standard deviation (X±s), analyzed with SPSS 11.5 statistic software, with P<0.05 meaning significant difference.
Kunming mice of clean grade (male, weight 20±2 g) are randomly divided into normal group, model group, bifendate (Zhejiang Wanbang Pharmaceutical Co., Ltd) positive control group (200 mg/kg), AD group (0.88 mmol/kg), low dosage group (0.66 mmol/kg) and high dosage (0.88 mmol/kg) group of compound D. ALT, AST, and MDA assay kits are purchased from Nanjing Jiancheng Bioengineering Institute. Other agents, drugs and experimental methods are the same as in EXAMPLE 1.
In experimental investigation of both models, the following grouping method is used: Kunming mice of clean grade (male, weight 20±2 g) are randomly divided into normal group, model group, bifendate group (200 mg/kg), AD group (0.88 mmol/kg), low dosage group (0.66 mmol/kg) and high dosage group (0.88 mmol/kg) of compound E, with 8 mice in each group. Other agents, drugs and experimental methods are the same as in EXAMPLE 1 and in EXAMPLE 4, respectively.

[2] = tested on: bovine viral diarrhea virus (BVDV-AV69); assay: CPE observation of effects on cytopathy caused by BVDV in MDBK cells
Experimental: Pharmaceutical effects of drugs of the invention against cytopathy caused by inoculation of BVDV virus are investigated using MDBK (NBL-1) cells (purchased from Chinese Academy of Science's Shanghai Center for Type Culture Collection) and bovine viral diarrhea virus (BVDV-AV69) (purchased from China Institute of Veterinary Drugs Control). Ribavirin (R; Henan RunHong Pharmaceutical Co., Ltd; batch number: E0909604) is used as positive drug control. MDBK cells are prepared as a suspension (1×10^5/mL) in RPMI1640 culture medium which contains 10% in volume fetal bovine serum (Zhejiang Tianhang Biotechnology Co., Ltd; batch number: 100524), 100 μg/mL streptomycin (Shenzheng Huayao Nanfang Pharmaceutical Co., Ltd; batch number: N09081), 100 U/mL penicillin (North China Pharmaceutical Co., Ltd; batch number: E0909604), and are seeded in 96 well plates (Costar, US) at 200 μL/well, placed in an incubator (Binder, Germany) at 37° C. with 5% CO2 to culture the cell. In 24 h when cells grow into a single layer, virus solution of 100 TCID50 (TCID50=10^−2.5) is added and incubated for 1.5 h. Maintenance medium with the drug is added at 200 μL/well after 3×PBS washes.
After digestion of MDBK cells with trypsin, cells with a concentration of 1×10^5/mL are seeded into 96 well plates at 200 μL/well, placed in an incubator at 37° C. with 5% CO2 for 24 h. After growing into a single layer, cells are attacked using 100 TCID50 (TCID50=10^−2.5) virus and incubated for 1.5 h. The virus-containing maintenance medium is discarded, and cells are washed with PBS, followed by addition of drug-containing maintenance medium with different concentrations, and incubation in 5% CO2 at 37° C. Normal cell control, virus control, drug treatment and ribavirin treatment groups are set. The cytopathy developing status is recorded everyday by observing under an inverted microscope.

[3] = low dosage (printed 0.66 mol/kg), P<0.01

**Q.** `C=C1CCC2C(C)(CO)C(O)CCC2(C)C1C=CC1=CC(=Cc2ccc(Cl)cc2)OC1=O` (centres unmarked) [Compound A] was tested. Which “liver histopathologic section (HE staining)” value ([1]; HE stain, 200x, FIG. 5) did it give?
**A.** no observation of extravasated blood in sinus hepaticus, liver cells show slightly granular degeneration and vacuolar degeneration, and no spotted and focal necrosis region is observed

**Q.** What about the “serum enzyme level relative to normal level” value ([1]; high dosage 0.88 mmol/kg) of the same molecule?
**A.** essentially decreased to normal level

**Q.** What about the “enzyme (ALT, AST) lowering effect compared to AD group” value ([1]; high dosage 0.88 mmol/kg vs AD 0.88 mmol/kg, P<0.05) of the same molecule?
**A.** better enzyme lowering effect

**Q.** What about the “PGE2 content in liver homogenate vs model group” value ([1]; high dosage 0.88 mmol/kg, P<0.01) of the same molecule?
**A.** notably reduce PGE2 content

**Q.** What about the “PGE2 content in liver homogenate vs model group” value ([1]; low dosage 0.66 mmol/kg, P<0.05 (A), P<0.01 (D)) of the same molecule?
**A.** notably reduce PGE2 content

**Q.** What about the “MDA content in liver homogenate vs model group” value [1, 3] of the same molecule?
**A.** more obvious effect

**Q.** And the “ability against liver lipid peroxidation compared with AD group” value [1, 3]?
**A.** stronger resistant ability against liver lipid peroxidation

**Q.** What about the “protective effect against liver damage induced by ConA (summary)” value ([1]; mice, intragastric, 3 days) of the same molecule?
**A.** notably protective effect

**Q.** And the “antiviral effect compared with AD” value ([2]; BVDV in MDBK cells)?
**A.** better antiviral effect than AD

**Q.** What about the “pharmaceutical effect against cytopathy caused by virus compared with ribavirin” value ([2]; BVDV in MDBK cells) of the same molecule?
**A.** better than ribavirin

**Q.** And the “TI value (therapy index, TC50/IC50)” value ([2]; MDBK cells, BVDV-AV69, TC50 from MTT, IC50 from CPE)?
**A.** >127.6

Reference: patent publication US9636324B2, “Use of 15-benzylidence-14-deoxy-11, 12 -dehyroandrographolide derivative in manufacture of medicaments for protecting liver and anti-hepatitis C virus” (Zhengzhou University, priority 2012, dated 2017)
